# Experimental data taken from paper PMC11671526, “β-caryophyllene sensitizes hepatocellular carcinoma cells to chemotherapeutics and inhibits cell malignancy through targeting MAPK signaling pathway” (Frontiers in Pharmacology, 2024).
# System: HepG2 cells
# Assay: RNA-seq transcriptome analysis of differentially expressed genes
# Assay type: cell-based, human
# Settings: BCP vs control HepG2, RNA-seq
# Method: The quality and concentration of RNA were examined by MOPS RNA electrophoresis and Eppendorf BioSpectrometer. The transcriptome analysis was performed by BGI-Wuhan China. The RNA-seq dataset of this study is accessible in the Gene Expression Omnibus (GEO) with an access number of GSE276099. The sequence library for each sample was prepared using the BGISEQ-500 platform with a 50-bp single-end (SE50) format. […]2.2.1) was used to align the clean reads to the reference genome and alignment of the clean reads to the reference genes was carried out using Bowtie2 (v2.4.5) ([Langmead and Salzberg, 2012]; [Kim et al., 2015]). Gene expression levels were calculated by RSEM (v1.3.1) ([Li and Dewey, 2011]). Analysis of differential gene expression was performed using edgeR in the Bioconductor software package ([Robinson et al., 2010]). Using a standard protocol, the RNA samples were also examined by reverse transcription and quantitative polymerase chain reaction (RT-qPCR). In brief, for reverse transcription, total RNA (1 μg) and gDNA wiper Mix were incubated at 42°C for 2 min. The samples were immediately incubated with a master mix containing 10 pmol/μL of poly (dT) primers at 37°C for 15 min and 85°C for 5 s. To detect the expression of specific genes by qPCR analysis, gene-specific primers (shown in Supplementary Table S1) were mixed with the ChamQ Universal SYBER qPCR Master Mix and the reaction was conducted using the Roche Lightcycler 480. The GAPDH value was used to normalize the results of each gene. The RNA-seq data of BCP-treated HepG2 cells were screened for DEGs. Gene symbols were turned into Enterz ID using the org.Hs.eg.db Bio-conductor R package. The cluster profiler (v4.6.2) package was used to perform the Kyoto Encyclopedia of Genes and Genomes (KEGG) and Gene Ontology (GO) enrichment analyses ([Wu et al., 2021]). Following the Transcript per million (TPM) data of the dataset, the line chart, and heatmap were plotted using ggplot2 and pheatmap R packages, respectively.
smiles,measurement,value
"C=C1CC/C=C(\C)CC[C@@H]2[C@@H]1CC2(C)C [BCP, β-caryophyllene]",ODAD2 change,Up
same,ODAD2 logFC,0.6018
same,PADI1 change,Down
same,PADI1 logFC,-0.911
same,PAN2 change,Up
same,PAN2 logFC,0.6394
same,PAPLN change,Up
same,PAPLN logFC,0.648
same,PARP10 change,Up
same,PARP10 logFC,0.961
same,PDZK1IP1 change,Up
same,PDZK1IP1 logFC,0.6396
same,PERM1 change,Up
same,PERM1 logFC,0.9379
same,PGF change,Down
same,PGF logFC,-1.184
same,PGGHG change,Up
same,PGGHG logFC,0.7209
same,PID1 change,Down
same,PID1 logFC,-0.6654
same,PLCD4 change,Down
same,PLCD4 logFC,-1.595
same,PLCH1 change,Up
same,PLCH1 logFC,1.418
same,PLEKHF1 change,Up
same,PLEKHF1 logFC,0.8594
same,PLEKHN1 change,Up
same,PLEKHN1 logFC,0.6105
same,POU2F3 change,Down
same,POU2F3 logFC,-1.5108
same,PRDM12 change,Down
same,PRDM12 logFC,-1.2196
same,PRIMPOL change,Up
same,PRIMPOL logFC,0.639
same,PROB1 change,Down
same,PROB1 logFC,-0.6611
same,PRSS56 change,Up
same,PRSS56 logFC,0.9346
same,PTP4A3 change,Up
same,PTP4A3 logFC,0.9798
same,PTPRR change,Up
same,PTPRR logFC,1.308
same,RAET1E change,Down
same,RAET1E logFC,-0.794
same,RAET1L change,Down
same,RAET1L logFC,-0.9044
same,RASD2 change,Down
same,RASD2 logFC,-0.5906
same,RASL11A change,Down
same,RASL11A logFC,-0.8207
same,RHBDL3 change,Down
same,RHBDL3 logFC,-0.6105
same,S1PR1 change,Down
same,S1PR1 logFC,-1.034
same,SH2D5 change,Up
same,SH2D5 logFC,0.5827
same,SHC3 change,Down
same,SHC3 logFC,-0.7485
same,SLC4A11 change,Down
same,SLC4A11 logFC,-0.655
same,SLC6A12 change,Down
same,SLC6A12 logFC,-3.144
same,SLC6A16 change,Down
same,SLC6A16 logFC,-0.7923
same,SLC12A3 change,Down
same,SLC12A3 logFC,-0.7354
same,SLC25A41 change,Down
same,SLC25A41 logFC,-0.9215
same,SMC1B change,Up
same,SMC1B logFC,1.162
same,SMPDL3A change,Down
same,SMPDL3A logFC,-0.7314
same,SORBS1 change,Up
same,SORBS1 logFC,0.6679
same,SP6 change,Down
same,SP6 logFC,-0.8849
same,ST3GAL5 change,Down
same,ST3GAL5 logFC,-0.6552
same,STAC change,Down
same,STAC logFC,-0.9497
same,STXBP6 change,Down
same,STXBP6 logFC,-0.6612
same,SYTL4 change,Down
same,SYTL4 logFC,-1.384
same,TCF7 change,Up
same,TCF7 logFC,0.7392
same,TESPA1 change,Down
same,TESPA1 logFC,-0.7534
same,TEX9 change,Up
same,TEX9 logFC,0.7307
same,TGFA change,Down
same,TGFA logFC,-0.6404
same,THRB change,Down
same,THRB logFC,-0.6974
same,TIAF1 change,Down
same,TIAF1 logFC,-0.9875
same,TLN2 change,Up
same,TLN2 logFC,0.6813
same,TMEM17 change,Up
same,TMEM17 logFC,0.6031
same,TMEM121 change,Down
same,TMEM121 logFC,-0.7343
same,TMEM158 change,Down
same,TMEM158 logFC,-0.7403
same,TMEM213 change,Down
same,TMEM213 logFC,-1.017
same,TMIE change,Up
same,TMIE logFC,1.064
same,TMPPE change,Down
same,TMPPE logFC,-0.812
same,TNFRSF14 change,Up
same,TNFRSF14 logFC,1.214
same,TOX change,Up
same,TOX logFC,0.9011
same,TRABD2B change,Up
same,TRABD2B logFC,0.6053
same,TSHZ2 change,Up
